As usually defined, the viability is a read-out of living cells in per cent, often relative to untreated cells.

The values below come from article PMC9088311, “Cyclic Thiosulfonates for Thiol-Mediated Uptake: Cascade Exchangers, Transporters, Inhibitors” (JACS Au, 2022).

One data set is described as follows: in vitro. To be noted: human.
The test system of data set [1] is HeLa Kyoto cells. To be noted: with transporter 31; pre-incubation (P); cited from earlier work.
Data set [2] concerns HK cells, transporter 31. To be noted: transporter 31 10 μM, pre-incubation (P), cited from earlier work; for IC50: read-out: IC50 (concentration needed to reach 50% inhibition).
The next data set relates to HK cells, transporter 28. Description: HCHT imaging: inhibition of cytosolic delivery of CTO transporter 28. In kind it is cell-based, Human. Also noted: key to inhibition of CTO 28 uptake (heatmap): –: −: inactive; ++: qualitative inhibition of SC2 uptake. To be noted: for IC50 / IC15 / MIC (concentration needed to reach 15% inhibition): inhibitor 1 h. As to the method: (§1) Uptake inhibition was measured by the automated HCHT imaging used already to elaborate on cytosolic delivery. For inhibitor screening, HK cells in multiwell plates were incubated with increasing concentrations of inhibitors, followed by fluorescent transporters 28, 31, and 32 at a constant concentration. […] If inhibitors are removed before the addition of transporters 28, 31, and 32, the method is referred to as “pre-incubation”. This is of interest to minimize exchange between the transporter and the inhibitor but is often problematic because dynamic covalent exchange between the inhibitor and cellular target can also be reversed and thus lost. The complementary “co-incubation” operates without inhibitor removal before the addition of transporters 28, 31, and 32.
(§2) 536/40 nm emission filter, and red with 531/40 nm excitation filter and 593/40 nm emission […]
(§3) 4.3. HCHT Inhibitor Screening
(§4) Pre-Incubation Method. As in ref. S1. HeLa Kyoto cells were seeded at 8 ×10^4 cells/mL in FluoroBrite DMEM + 10% FBS on μ-Plate 96-well Black ibiTreat sterile and incubated at 37 °C with 5% CO 2 for 24 h. Then, the medium was removed and cells were washed with PBS ([…]), fresh FluoroBrite DMEM medium (4 × 150 μL/well) was added into the cells using a plate washer (Biotek EL406®), keeping a final volume of 135 μL/well. Different concentrations of the inhibitors were prepared by serial dilution with 10% final concentration DMSO (10× in PBS). The solution of compounds 4 and 33 was prepared final DMSO concentration of 10% in each dilution (10× in PBS). These inhibitor solutions (10× final concentration), transporter 28 (10× in DMEM), transporters 31 and 32 (10× in PBS) a solution of HOE (100 μg/mL) and PI (10 μg/mL) in PBS were prepared freshly in a 96-well V-bottom plate before adding to the cells. The inhibitor solutions from the V-bottom plate were added to the cells (15 μL/well) in a final volume of 150 μL/well using an electronic multichannel pipette and cells were incubated for 1 h at 37 °C with 5% CO 2. After this incubation, cells were washed again with PBS and DMEM using the plate washer (in the way mentioned above), and transporter 28 , 31 or 32 from the V-bottom plate was added (15 μL/well) to the cells in a final volume of 150 μL/well. A final concentration of each transporter 28 , 31 and 32 was 5 μM, 10 μM and 0.5 μM, respectively, except for the control wells, where only PBS was added (15 μL/well). Cells treated with transporter 28 or 31 were incubated for 30 min, and cells treated with 32 were incubated for 2 h at 37 °C with 5% CO 2. After that, the cells were washed with PBS and DMEM using the plate washer, and the solution of Hoechst 33342 and PI from the V-bottom plate was added (15 μL/well) to the cells in a final volume of 150 μL/well. After 15 min of incubation at 37 °C with 5% CO 2, the cells were washed and kept in clean FluoroBrite
(§5) DMEM. For live cell imaging, samples were kept at 37 °C with 5% CO 2 during the microscope imaging. The distribution of fluorescence stained cells was analyzed without fixing using an […]

The next data set concerns the target cathepsin B (Homo sapiens, UniProt P07858). Description: Cathepsin B inhibition (preliminary, not shown). In kind it is biochemical. To be noted: preliminary results.
The next data set has as its target cathepsin L (Homo sapiens, UniProt P07711). Kind of data set: Cathepsin L inhibition (preliminary, not shown). In kind it is biochemical. To be noted: preliminary results.
The test system of another data set is trypsin. Kind of data set: Trypsin inhibition (preliminary, not shown). To be noted: preliminary results; for inhibition of trypsin (in words): 50 μM. In kind it is biochemical.
Data set [3] relates to HeLa Kyoto cells. Kind of data set: Relative viability (HOE/PI) in HCHT screening. Here is the method: One advantage of HCHT imaging of cellular uptake compared to flow cytometry[38],[42],[43] is that it simultaneously gives information on toxicity and intracellular localization. […] Information on the intracellular localization of reporters can be quantified through segmentation of cellular compartments stained with specific markers.[52]
as §1
Relative cell viability ( RV) for each condition in the presence of inhibitors was calculated […]
of the relative cell viability ( RVrel) to the concentration of inhibitors ( cinhibitor ) was plotted and fitted with Equation (S19) to retrieve the concentration causing 50% cell growth inhibition (RV50) value and the Hill coefficient ( n).

Data set [4] deals with HK cells, transporter 31. Description: HCHT imaging: inhibition of cytosolic delivery of ETP transporter 31. In kind it is cell-based, Human. To be noted: inhibitor 1 h; for IC50 / IC15: Homo sapiens; for IC50: read-out: IC50 (concentration needed to reach 50% inhibition), transporter 31 10 μM; for IC15: read-out: MIC (concentration needed to reach 15% inhibition), transporter 31 10 μM. Here is the method:
as §1, §2, §3, §4, §5

In a further data set the test system is HK cells, transporter 32. Also noted: method as in PMID 34173696. To be noted: transporter 32 0.5 or 1 μM, pre-incubation (P), cited from earlier work; for IC50: read-out: IC50 (concentration needed to reach 50% inhibition).
[5] abbreviates: Homo sapiens, 1 h, read-out: IC50 (concentration needed to reach 50% inhibition), transporter 28 5 μM, co-incubation (C).
Where [6] appears, read: Homo sapiens, 1 h, read-out: MIC (concentration needed to reach 15% inhibition), transporter 28 5 μM, co-incubation (C).
The mark [7] stands for this setting: transporter 28 5 μM, co-incubation (C).
[8] abbreviates: with transporter 28, co-incubation (C).
Setting [9] is: with transporter 31, co-incubation (C).
Setting [10] is: Homo sapiens, read-out: IC50 (concentration needed to reach 50% inhibition), transporter 28 5 μM, pre-incubation (P).
The mark [11] stands for this setting: transporter 28 5 μM, pre-incubation (P).
Where [12] appears, read: with transporter 28, pre-incubation (P).

Structures are written as SMILES. ≈ marks a conversion by molar mass, not a printed value. Where two headings read alike, the source gives them in different places. Where only a bound is given, the exact number is not on record here.

Chain of cathepsin L (P07711 114-333, species assumed): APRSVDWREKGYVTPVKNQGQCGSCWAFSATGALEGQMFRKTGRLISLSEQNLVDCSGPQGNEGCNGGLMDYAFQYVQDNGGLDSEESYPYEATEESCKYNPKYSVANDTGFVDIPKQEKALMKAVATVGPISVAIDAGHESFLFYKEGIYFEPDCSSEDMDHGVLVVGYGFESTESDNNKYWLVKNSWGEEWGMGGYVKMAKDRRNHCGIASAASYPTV

Take `CC(=O)/C=C1/C(=O)N(C)c2ccccc21` [Compound 48, super-cinnamaldehyde, reference compound]: the viability at 7 h, 5 µM in the data set “in vitro” was determined as 94%. Moreover, the “RV50 (concentration needed to lower relative viability by 50%)” value in the data set with HeLa Kyoto cells [1] was greater than 20 µM. Also, in the data set with HK cells, transporter 31 [2], the IC50 is 4 µM and the “MIC (concentration needed to reach 15% inhibition)” value is less than 1 µM.
Take `CC(C)(C)OC(=O)NCCNC(=O)O[C@H]1CSS(=O)(=O)C[C@H]1O` [Compound 34]: in “in vitro”, the viability at 7 h, 50 µM came to 76%. Moreover, the IC50 with HK cells, transporter 28 (setting [5]) is 26 µM; in the data set on HK cells, transporter 31 [4] (1 h, co-incubation (C)), greater than 100 µM; in the data set on HK cells, transporter 31 [4] (pre-incubation (P)), greater than 100 µM. For the same molecule, the IC15 in the data set on HK cells, transporter 28 (setting [6]) amounted to 1.2 µM; with HK cells, transporter 31 [4] (1 h, co-incubation (C)) it was 16 µM; in the data set on HK cells, transporter 31 [4] (1 h, pre-incubation (P)) it was 3 µM. Moreover, the “MIC (concentration needed to reach 15% inhibition)” value with HK cells, transporter 28 (setting [7]) was 1 µM; in the data set on HK cells, transporter 31 [4] (transporter 31 10 μM, pre-incubation (P)), 3 µM (≈ 1.11 µg/mL). In addition, the “inhibition of cathepsin B (in words)” value against cathepsin B (50 μM) was “inhibit only cathepsin B”. Also, the “inhibition of cathepsin L (in words)” value against cathepsin L (50 μM) is listed as “inhibit only cathepsin B”. In addition, the “inhibition of trypsin (in words)” value with trypsin is on record as “inhibit only cathepsin B”. For the same molecule, the “RV50 (concentration needed to lower relative viability by 50%)” value with HeLa Kyoto cells [3] (setting [8]) is greater than 50 µM; in the data set on HeLa Kyoto cells [3] (setting [9]) it was greater than 100 µM; in the data set on HeLa Kyoto cells [3] (with transporter 31, pre-incubation (P)), greater than 100 µM.
As for `CCN1C(=O)C2SSSSC1C(=O)N2CC(=O)O` (stereo not shown) [Compound 47, reference compound], the viability at 7 h, 50 µM in the data set “in vitro” was found to be 70%. Besides, the figures for the “RV50 (concentration needed to lower relative viability by 50%)” value in the data set with HeLa Kyoto cells [1] and with HeLa Kyoto cells [3] (setting [12]) were 35 µM and greater than 10 µM, respectively. Further, the IC50 was greater than 10 µM in the data set with HK cells, transporter 28 (setting [10]); 1.3 µM in the data set on HK cells, transporter 31 [2]; 50 µM with HK cells, transporter 32. Also, the IC15 in the data set with HK cells, transporter 28 (Homo sapiens, read-out: MIC (concentration needed to reach 15% inhibition), transporter 28 5 μM, pre-incubation (P)) was greater than 10 µM. For the same molecule, the “inhibition of CTO 28 uptake (heatmap)” value in the data set with HK cells, transporter 28 (pre-incubation conditions) is “–”. Moreover, the “MIC (concentration needed to reach 15% inhibition)” value with HK cells, transporter 28 (setting [11]) was greater than 10 µM; with HK cells, transporter 32, 2 µM (≈ 0.653 µg/mL).
For the molecule `O=C(N[C@H]1CCS(=O)(=O)SC1)N[C@H]1CCS(=O)(=O)SC1` [Compound 35], in “in vitro”, the viability at 7 h, 50 µM was found to be 96%. In addition, the IC50 in the data set on HK cells, transporter 28 (setting [5]) is 25 µM; with HK cells, transporter 31 [4] (1 h, co-incubation (C)) it was 51 µM. The IC15 in the data set on HK cells, transporter 28 (setting [6]) was 3.5 µM; with HK cells, transporter 31 [4] (1 h, co-incubation (C)), 9 µM. Besides, the “MIC (concentration needed to reach 15% inhibition)” value in the data set on HK cells, transporter 28 (setting [7]) was determined as 4 µM. For the same molecule, the “inhibition of cathepsin B (in words)” value at cathepsin B (50 μM) is reported as “inhibit only cathepsin B”. Moreover, the “inhibition of cathepsin L (in words)” value on cathepsin L (50 μM) was “inhibit only cathepsin B”. Further, the “inhibition of trypsin (in words)” value with trypsin is on record as “inhibit only cathepsin B”. For the same molecule, the “RV50 (concentration needed to lower relative viability by 50%)” value in the data set with HeLa Kyoto cells [3] (setting [8]) is greater than 50 µM; with HeLa Kyoto cells [3] (setting [9]), greater than 100 µM.
Consider `CC(C)(C)[Si](C)(C)OC1CS(=O)(=O)SCC1OC(=O)NCCCCCCNC(=O)OC1CSS(=O)(=O)CC1O[Si](C)(C)C(C)(C)C` (stereo not shown) [Compound 4], for which the viability at 7 h, 10 µM in “in vitro” is 103%. The IC50 was 16 ± 7 µM with HK cells, transporter 28 (setting [5]) and roughly 15 µM with HK cells, transporter 28 (read-out: IC50 (concentration needed to reach 50% inhibition), transporter 28 5 μM, co-incubation (C)). For the same molecule, the IC15 in the data set with HK cells, transporter 28 (setting [6]) was determined as 0.3 µM. Also, the “inhibition of cathepsin B (in words)” value on cathepsin B (10 μM) was “neither cathepsin L nor B”. Moreover, at cathepsin L (10 μM), the “inhibition of cathepsin L (in words)” value is reported as “neither cathepsin L nor B”. The same molecule registered an inhibition of trypsin with trypsin (10 μM, not shown) greater than 80%. The “RV50 (concentration needed to lower relative viability by 50%)” value in the data set on HeLa Kyoto cells [3] (setting [8]) is greater than 5 µM.
Consider `CC#CI1OC(=O)c2ccccc21` [Compound 49, reference compound], for which the viability at 7 h, 5 µM in “in vitro” was determined as 92%. For the same molecule, the entries for the “RV50 (concentration needed to lower relative viability by 50%)” value in the data set on HeLa Kyoto cells [1] and in the data set on HeLa Kyoto cells [3] (setting [12]) were 60 µM and greater than 50 µM, respectively. In the data set with HK cells, transporter 28 (Homo sapiens, 1 h, read-out: MIC (concentration needed to reach 15% inhibition), transporter 28 5 μM, pre-incubation (P)), the IC15 came to 8.7 µM. The IC50 with HK cells, transporter 28 (setting [10]) is 53 µM; with HK cells, transporter 31 [2], 40 µM; with HK cells, transporter 32 it was 10 µM. Besides, the “MIC (concentration needed to reach 15% inhibition)” value is 9 µM (≈ 2.57 µg/mL) against HK cells, transporter 28 (setting [11]); 4 µM (≈ 1.14 µg/mL) in the data set on HK cells, transporter 31 [2]; 0.3 µM (≈ 0.0858 µg/mL) in the data set with HK cells, transporter 32.
